According to patent publication US7521438B1, “Combination of loteprednol and β2-adrenoceptor agonists” (MEDA Pharma GmbH & Co. KG, priority 1999, dated 2009):
Where “and” joins values, the source holds several entries; their conditions need not be identical. Identical values can stand only once.

Key:
TNFα release = test: LPS-induced TNFα release in human blood diluted 1:5 (ELISA); format: cell-based; details: human blood diluted 1:5, LPS 10 μg/ml, 24 h, n = 8
Description: In vitro investigations were carried out for influencing the release of the proinflammatory cytokine TNFα in human blood diluted 1:5. Stimulation was carried out using lipopolysaccharide (LPS) of Salmonella abortus equi (10 μg/ml) over the course of 24 h at 37° C. and 5% CO2 in an incubator. The TNFα release was carried out using an ELISA, composed from antibodies from Pharmigen. The results were indicated as the percentage inhibition of LPS-induced TNFα release (Table 1).

[1] = test system: eosinophilic granulocytes in the lung; test: Late-phase eosinophilia in actively sensitized guinea pigs, pulmonary lavage 24 h after allergen provocation; format: in vivo; details: guinea pig
[2] = Thymus involution in young rats on intrapulmonary powder administration over 29 days; format: in vivo; details: for Toxic dose with significant thymus involution: repeated intrapulmonary administration, 29 days, 1x daily, young rats; for Quotient of toxic dose: therapeutic dose (therapeutic breadth): toxic dose (mg/kg, 29 days) / ID50 (μg/kg, single dose), intrapulmonary, rats
Description: In the second experiment, the influence of loteprednol on the thymus development of young rats (21 days old at the start of the experiment) was intensively investigated in comparison to budesonide and fluticasone (see Table 4). After an intrapulmonary long-term administration of the active compound in powder form over the course of 29 days (1× daily) by means of a tube, at the end of the experiment the thymus glands were removed and the organ weight per 100 g of body mass was determined.
(§1) The therapeutic breadth of the corticosteroids was determined with the aid of the quotient of the dose (mg/kg) with significant thymus involution (toxic dose) on repeated intrapulmonary administration over the course of 29 days (1× daily) and the therapeutic dose. The therapeutic dose was determined in the asthma model of late-phase eosinophilia on actively sensitized brown Norway rats. The active compound was administered to the sensitized brown Norway rats under anesthesia intrapulmonarily 2 hours before an allergen provocation (challenge) and 24 hours later the lungs of the animals were lavaged under deep anesthesia. The number of eosinophilic granulocytes in the pulmonary lavage fluid of untreated and active compound-treated rats was then determined. Corticosteroids such as loteprednol inhibit the infiltration of eosinophils into the lung after allergen provocation.

[3] = test system: eosinophilic granulocytes in the pulmonary lavage fluid; test: Late-phase eosinophilia in actively sensitized brown Norway rats, single intrapulmonary administration; format: in vivo; details: 2 h before allergen provocation
Description: as §1

[4] = topically administered; cited from earlier work
[5] = topically administered; cited from earlier work; remark: listed apart in the source

SMILES | inhibition at 0.001 µM (TNFα release; 0.001 μmol/l) [%] | Inhibition of eosinophilia ([1]; 0.001 mg/kg intrapulmonarily) [%] | Inhibition of eosinophilia ([1]; 0.003 mg/kg intrapulmonarily) [%] | Toxic dose with significant thymus involution [2] | Quotient of toxic dose: therapeutic dose (therapeutic breadth) [2] | Therapeutic dose in late-phase eosinophilia ID50 [3] [µg/kg] | Increase of intraocular pressure [4] | Detection in the plasma [5] | inhibition at 10 µM (TNFα release; 10 μmol/l) [%]
CCOC(=O)O[C@]1(C(=O)OCCl)CC[C@H]2[C@@H]3CCC4=CC(=O)C=C[C@]4(C)[C@H]3[C@@H](O)C[C@@]21C [Loteprednol, loteprednol] | 1 | 10.5 | 21.8 | 20 mg/kg | 45.5 ×10^3 | 0.44 | does not increase the intraocular pressure | could not be detected in the plasma | –
CC(C)(C)NCC(O)c1ccc(O)c(CO)c1 (stereo not drawn) [Salbutamol, salbutamol] | – | – | – | – | – | – | – | – | 17
CCCC1O[C@@H]2C[C@H]3[C@@H]4CCC5=CC(=O)C=C[C@]5(C)[C@H]4[C@@H](O)C[C@]3(C)[C@]2(C(=O)CO)O1 (stereo partly drawn) [Budesonide, budesonide] | – | – | – | 0.5 mg/kg | 5 ×10^3 | 0.1 | – | – | –
C[C@@H]1C[C@H]2[C@@H]3C[C@H](F)C4=CC(=O)C=C[C@]4(C)[C@@]3(F)[C@@H](O)C[C@]2(C)[C@@]1(O)C(=O)SCF [Fluticasone, fluticasone] | – | – | – | 1.0 mg/kg and 1 mg/kg | 33 ×10^3 | 0.03 | – | – | –
